Data on one compound can be found in article PMC5657837 (Journal of Insect Science, 2014).

The experiment concerns midgut α-amylase. The experiment can be described thus: α-amylase activity of larval midgut homogenate. It counts as biochemical, Mythimna separata.

Structures are written as SMILES.

`O=C1CCC(=O)N1Br` [NBS, N-bromosuccinimide] displayed a Ki of 2.53 µM.

As usually defined, the Ki is the dissociation constant of the complex between target and ligand, obtained from inhibition or displacement.
